From patent publication US9085540B2, “Pyrazinecarboxamide compound” (Astellas Pharma Inc., priority 2012, dated 2015) come the findings set out here.

One test concerns the target EGFR [T790M/L858R] (Homo sapiens (Human), UniProt P00533, L858R/T790M). The test can be described thus: Inhibitory activity on EGFR T790M/L858R mutation kinase (LabChip peptide substrate phosphorylation). Type of test: biochemical. Particulars: EGFR [T790M/L858R] enzyme, 2 hours preincubation, ATP 1000 μM. Here is the method: The phosphorylation activity on the peptide substrate of EGFR was investigated using LabChip (trademark) Systems (Caliper Life Sciences, Inc.). […] (Carna Biosciences, Inc.) was used. […] Then, the substrate and the ATP solution were added thereto, followed by reaction for 1 hour. An ATP concentration of 1000 μM was used. A reaction liquid containing the enzyme protein but no test compound (in which the DMSO alone was added as a solvent at 0.4% in place of the test compound) was prepared, followed by reaction in the same manner with or without ATP addition. […] The concentration causing 50% inhibition (IC50) was calculated for the test compound by a logistic regression method.

Test [1] deals with Ba/F3 cells expressing EGFR T790M/L858R mutation kinase. Briefly: Inhibition of EGFR T790M/L858R mutation kinase-dependent cell proliferation (Cell Titer-Glo). The following applies: Mus musculus, BaF3, 48 h, cultured 2 days. It is filed as cell-based. How it is done: (§1) In a 96-well plate (Iwaki), Ba/F3 cells were seeded at 500 cells per well in an RPMI1640 medium (Invitrogen) containing 10% fetal bovine serum, followed by the addition of the test compound (final concentrations ranging from 1 μM to 0.1 nM) and DMSO which was a solvent of the test compound as a negative control. In the presence of 5% CO2, the cells were cultured at 37° C. for 2 days. A cell counting reagent (Cell Titer-Glo; Promega) was added thereto, and the light emitting intensity was measured using a luminometer (Envison or ARVO; PerkinElmer Inc.). […] The inhibitory rate of the test compound was calculated and the concentration causing 50% inhibition (IC50 value) was determined by a logistic regression method.
On the technique in general: In ATP-based viability assays light output follows the ATP content of the culture.

Test [2] concerns Ba/F3 cells expressing EGFR T790M/del19 mutation kinase. The test can be described thus: Inhibition of EGFR T790M/del19 mutation kinase-dependent cell proliferation (Cell Titer-Glo). Type of test: cell-based. Particulars: Mus musculus, BaF3, 48 h; Ba/F3 cells expressing EGFR T790M/del19, cultured 2 days. How it is done: as §1
Test [3] has as its system H1975 cells (EGFR T790M mutation-expressing) subcutaneous tumor. The test can be described thus: Anti-tumor test on EGFR T790M mutation-expressing H1975 cell cancer-bearing mice. The following applies: Mus musculus, NCI-H1975, 336 h; H1975 cancer-bearing nude mice, oral 10 mg/kg once a day for 14 days; read-out: inhibitory rate (tumor volume). Type of test: in vivo. How it is done: 3×10^6 Cells of H1975 suspended in PBS were inoculated subcutaneously by injection to the back of 5-week old male […] nude mice (Charles River Laboratories Japan, Inc.). After 10 days of the inoculation, the administration of the test compound was initiated. The test was carried out in the solvent group and the test compound groups, with 5 animals per group. The test compounds were each mixed in a solvent of 0.5% aqueous methyl cellulose solution or a mixed solvent of polyethyleneglycol:N-methylpyrrolidone=90:10, and administered orally at a dose of 10 mg/kg. Administrations were performed once a day for 14 days, and the body weight and the tumor diameter were measured roughly every other day. The tumor volume was calculated using the following formula. [Tumor volume (mm^3)]=[Tumor major axis (mm)]×[Tumor minor axis (mm)]^2×0.5

Each structure is given as a SMILES string.

EGFR [T790M/L858R], sequence (P00533 25-1210 T790M/L858R): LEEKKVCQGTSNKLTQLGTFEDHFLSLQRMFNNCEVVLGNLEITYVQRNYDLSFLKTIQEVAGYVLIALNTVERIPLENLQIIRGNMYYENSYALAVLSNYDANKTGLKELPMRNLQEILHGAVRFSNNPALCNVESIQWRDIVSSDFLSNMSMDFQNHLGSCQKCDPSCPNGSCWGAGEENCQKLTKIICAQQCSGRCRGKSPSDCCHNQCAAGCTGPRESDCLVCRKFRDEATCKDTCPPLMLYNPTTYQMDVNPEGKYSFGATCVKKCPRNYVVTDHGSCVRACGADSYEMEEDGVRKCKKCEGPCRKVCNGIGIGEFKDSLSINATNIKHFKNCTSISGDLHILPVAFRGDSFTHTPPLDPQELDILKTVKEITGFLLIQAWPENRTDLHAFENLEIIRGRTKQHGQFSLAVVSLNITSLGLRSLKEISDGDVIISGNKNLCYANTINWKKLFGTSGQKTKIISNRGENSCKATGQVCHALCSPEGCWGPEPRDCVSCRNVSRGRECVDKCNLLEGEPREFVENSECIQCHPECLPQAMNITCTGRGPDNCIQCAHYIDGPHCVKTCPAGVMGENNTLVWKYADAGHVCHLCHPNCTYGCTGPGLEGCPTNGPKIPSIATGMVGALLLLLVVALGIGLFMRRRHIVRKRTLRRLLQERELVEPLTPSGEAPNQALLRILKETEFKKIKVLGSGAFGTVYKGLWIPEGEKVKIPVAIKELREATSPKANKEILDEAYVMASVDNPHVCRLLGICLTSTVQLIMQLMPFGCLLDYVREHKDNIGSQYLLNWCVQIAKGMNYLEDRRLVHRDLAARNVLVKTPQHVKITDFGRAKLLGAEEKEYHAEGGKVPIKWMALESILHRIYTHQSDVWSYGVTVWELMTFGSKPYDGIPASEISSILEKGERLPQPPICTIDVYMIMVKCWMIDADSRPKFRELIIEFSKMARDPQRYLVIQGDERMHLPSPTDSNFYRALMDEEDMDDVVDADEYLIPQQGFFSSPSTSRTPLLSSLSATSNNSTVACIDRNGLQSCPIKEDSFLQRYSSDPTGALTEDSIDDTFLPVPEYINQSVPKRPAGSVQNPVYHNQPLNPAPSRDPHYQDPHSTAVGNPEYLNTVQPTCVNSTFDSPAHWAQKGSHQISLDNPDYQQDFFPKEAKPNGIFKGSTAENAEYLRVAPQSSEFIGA

As to `C=CC(=O)Nc1cccc(Oc2nc(Nc3ccc(N4CCN(C)CC4)cc3)c(C(N)=O)nc2CC)c1` [Example 1, 5-[3-(acryloylamino)phenoxy]-6-ethyl-3-{[4-(4-methylpiperazin-1-yl)phenyl]amino}pyrazine-2-carboxamide], the IC50 was found to be 1.3 nM on EGFR [T790M/L858R], 2.2 nM in test [1] and 1.4 nM in test [2]. Moreover, the inhibition in vivo at 10 mg/kg in test [3] was 24%.

On EGFR [T790M/L858R], `C=CC(=O)N1CCC[C@@H](Oc2nc(Nc3ccc(N4CCC(N5CCN(C)CC5)CC4)c(C)c3)c(C(N)=O)nc2CC)C1` [Example 80] showed an IC50 of 1.2 nM. In test [3], the inhibition in vivo at 10 mg/kg was 27%.

Take `C=CC(=O)Nc1cccc(Oc2cnc(C(N)=O)c(Nc3ccc(N4CCN(C)CC4)cc3)n2)c1` [Example 26]: the IC50 at EGFR [T790M/L858R] amounted to 1.1 nM; in test [1] it was 0.92 nM; in test [2], 0.52 nM.

For `C=CC(=O)Nc1cccc(Oc2nc(Nc3ccc(N4CCN(C)CC4)cc3)c(C(N)=O)nc2CC)c1C` [Example 15], the IC50 on EGFR [T790M/L858R] was 1.2 nM; in test [1] it was 1.1 nM; in test [2], 0.77 nM. Moreover, in test [3], the inhibition in vivo at 10 mg/kg stood at 41%.

`C=CC(=O)N1CCC[C@@H](Oc2nc(Nc3ccc(N4CCC(N5CCN(C)CC5)CC4)cc3)c(C(N)=O)nc2CC)C1` [Example 79] yielded an IC50 against EGFR [T790M/L858R] of 1.3 nM. For the same molecule, in test [3], the inhibition in vivo at 10 mg/kg is 30%.

Regarding `C=CC(=O)Nc1cccc(Oc2nc(Nc3ccc(N4CCN(CC)CC4)cc3)c(C(N)=O)nc2CC)c1` [Example 43], the IC50 in test [2] turned out to be 0.51 nM.

Turning to `C=CC(=O)Nc1cccc(Oc2nc(Nc3ccc(N4CCN(C)[C@H](C)C4)cc3)c(C(N)=O)nc2CC)c1` [Example 64], in test [2], the IC50 amounted to 0.42 nM. Further, the inhibition in vivo at 10 mg/kg in test [3] is 28%.

In the case of `C=CC(=O)N1CC[C@@H](Oc2nc(Nc3ccc(N4CCC(N5CCN(C)CC5)CC4)cc3)c(C(N)=O)nc2CC)C1` [Example 54], the IC50 against EGFR [T790M/L858R] is 1.7 nM; in test [1] it was 4.5 nM; in test [2] it was 3.2 nM. Further, the inhibition in vivo at 10 mg/kg in test [3] stood at 74%.

With `C=CC(=O)Nc1cccc(Oc2nc(Nc3ccc(OC)c(N4CCN(C)CC4)c3)c(C(N)=O)nc2CC)c1` [Example 42], the IC50 is 1.2 nM at EGFR [T790M/L858R], 1.4 nM in test [1] and 1.3 nM in test [2].

As to `CCc1nc(C(N)=O)c(Nc2ccc(N3CCN(C)CC3)cc2)nc1Oc1cccc(NC(=O)/C=C/CN(C)C)c1` [Example 3, 5-(3-{[(2E)-4-(dimethylamino)buta-2-enoyl]amino}phenoxy)-6-ethyl-3-{[4-(4-methylpiperazin-1-yl)phenyl]amino}pyrazine-2-carboxamide], the IC50 is 1.4 nM at EGFR [T790M/L858R], 17 nM in test [1] and 8.8 nM in test [2].

With `C=CC(=O)Nc1ccc(F)c(Oc2nc(Nc3ccc(N4CCN(C)CC4)cc3)c(C(N)=O)nc2CC)c1` [Example 82], at EGFR [T790M/L858R], inhibition was half-maximal at 1.5 nM (IC50). Also, in test [3], the inhibition in vivo at 10 mg/kg stood at 84%.

With `C=CC(=O)Nc1cccc(Oc2nc(Nc3ccc(N4CCN(C)[C@@H](C)C4)cc3)c(C(N)=O)nc2CC)c1` [Example 63], the IC50 in test [2] amounted to 0.66 nM.

On to `C=CC(=O)Nc1cccc(Oc2nc(Nc3cnn(C4CCN(C)CC4)c3)c(C(N)=O)nc2C(C)C)c1` [Example 56], for which the IC50 is 1.3 nM at EGFR [T790M/L858R], 2 nM in test [1] and 1.6 nM in test [2].

In test [2], `C=CC(=O)N1CCC(c2nc(Nc3ccc(N4CCC(N5CCN(C)CC5)CC4)c(C)c3)c(C(N)=O)nc2CC)CC1` [Example 24] came in with an IC50 of 0.48 nM. For the same molecule, in test [3], the inhibition in vivo at 10 mg/kg was found to be 100%.

For orientation: IC50 means the point on the concentration scale where inhibition reaches its midpoint. Read a high IC50 as weaker potency.
